Results: ChEMBL document CHEMBL3045391, “Synthesis and biological evaluation of 5,7-diaryl-4,4-dimethyl-4,5,6,7-tetrahydropyridino[3,4-d]-1,2,3-thiadiazoles” (2007)
Active and inactive are the calls of the source. No cut-off for these calls is given here.

Assays:
[1] = system: Streptococcus; test: Antibacterial activity against beta-hemolytic Streptococcus at 100 ppm after 24 hr by disk diffusion method; format: functional, organism-based
[2] = system: Staphylococcus aureus; test: Antibacterial activity against Staphylococcus aureus at 500 ppm after 24 hr by disk diffusion method; format: functional; conditions: read-out: IZ
[3] = system: Staphylococcus aureus; test: Antibacterial activity against Staphylococcus aureus at 200 ppm after 24 hr by disk diffusion method; format: functional; conditions: read-out: IZ
[4] = system: Nannizzia gypsea; test: Antifungal activity against Microsporum gypseum at 100 ppm after 72 to 96 hr by disk diffusion method; format: functional; conditions: read-out: IZ
[5] = system: Staphylococcus aureus; test: Antibacterial activity against Staphylococcus aureus at 100 ppm after 24 hr by disk diffusion method; format: functional
[6] = system: Escherichia coli; test: Antibacterial activity against Escherichia coli at 200 ppm after 24 hr by disk diffusion method; format: functional; conditions: read-out: IZ
[7] = system: Mucor; test: Antifungal activity against Mucor at 200 ppm after 72 to 96 hr by disk diffusion method; format: functional; conditions: read-out: IZ
[8] = system: Shigella flexneri; test: Antibacterial activity against Shigella flexneri at 500 ppm after 24 hr by disk diffusion method; format: functional; conditions: read-out: IZ
[9] = system: Vibrio cholerae; test: Antibacterial activity against Vibrio cholerae at 200 ppm after 24 hr by disk diffusion method; format: functional; conditions: read-out: IZ
[10] = system: Nannizzia gypsea; test: Antifungal activity against Microsporum gypseum at 200 ppm after 72 to 96 hr by disk diffusion method; format: functional; conditions: read-out: IZ
[11] = system: Streptococcus; test: Antibacterial activity against beta-hemolytic Streptococcus at 500 ppm after 24 hr by disk diffusion method; format: functional; conditions: read-out: IZ
[12] = system: Klebsiella pneumoniae; test: Antibacterial activity against Klebsiella pneumoniae at 500 ppm after 24 hr by disk diffusion method; format: functional; conditions: read-out: IZ
[13] = system: Rhizopus; test: Antifungal activity against Rhizopus at 500 ppm after 72 to 96 hr by disk diffusion method; format: functional; conditions: read-out: IZ
[14] = system: Rhizopus; test: Antifungal activity against Rhizopus at 100 ppm after 72 to 96 hr by disk diffusion method; format: functional; conditions: read-out: IZ
[15] = system: Salmonella typhi; test: Antibacterial activity against Salmonella enterica subsp. enterica serovar Typhi at 100 ppm after 24 hr by disk diffusion method; format: functional; conditions: read-out: IZ
[16] = system: Nannizzia gypsea; test: Antifungal activity against Microsporum gypseum at 500 ppm after 72 to 96 hr by disk diffusion method; format: functional; conditions: read-out: IZ
[17] = system: Mucor; test: Antifungal activity against Mucor at 500 ppm after 72 to 96 hr by disk diffusion method; format: functional; conditions: read-out: IZ
[18] = system: Rhizopus; test: Antifungal activity against Rhizopus at 200 ppm after 72 to 96 hr by disk diffusion method; format: functional; conditions: read-out: IZ
[19] = system: Salmonella typhi; test: Antibacterial activity against Salmonella enterica subsp. enterica serovar Typhi at 500 ppm after 24 hr by disk diffusion method; format: functional; conditions: read-out: IZ
[20] = system: Escherichia coli; test: Antibacterial activity against Escherichia coli at 100 ppm after 24 hr by disk diffusion method; format: functional, organism-based
[21] = system: Vibrio cholerae; test: Antibacterial activity against Vibrio cholerae at 500 ppm after 24 hr by disk diffusion method; format: functional; conditions: read-out: IZ
[22] = system: Klebsiella pneumoniae; test: Antibacterial activity against Klebsiella pneumoniae at 200 ppm after 24 hr by disk diffusion method; format: functional; conditions: read-out: IZ
[23] = system: Pseudomonas; test: Antibacterial activity against Pseudomonas at 100 ppm after 24 hr by disk diffusion method; format: functional
[24] = system: Pseudomonas; test: Antibacterial activity against Pseudomonas at 500 ppm after 24 hr by disk diffusion method; format: functional; conditions: read-out: IZ
[25] = system: Vibrio cholerae; test: Antibacterial activity against Vibrio cholerae at 100 ppm after 24 hr by disk diffusion method; format: functional; conditions: read-out: IZ
[26] = system: Shigella flexneri; test: Antibacterial activity against Shigella flexneri at 200 ppm after 24 hr by disk diffusion method; format: functional; conditions: read-out: IZ
[27] = system: Mucor; test: Antifungal activity against Mucor at 100 ppm after 72 to 96 hr by disk diffusion method; format: functional
[28] = system: Salmonella typhi; test: Antibacterial activity against Salmonella enterica subsp. enterica serovar Typhi at 200 ppm after 24 hr by disk diffusion method; format: functional; conditions: read-out: IZ
[29] = system: Shigella flexneri; test: Antibacterial activity against Shigella flexneri at 100 ppm after 24 hr by disk diffusion method; format: functional; conditions: read-out: IZ
[30] = system: Klebsiella pneumoniae; test: Antibacterial activity against Klebsiella pneumoniae at 100 ppm after 24 hr by disk diffusion method; format: functional; conditions: read-out: IZ
[31] = system: Escherichia coli; test: Antibacterial activity against Escherichia coli at 500 ppm after 24 hr by disk diffusion method; format: functional; conditions: read-out: IZ
[32] = system: Aspergillus flavus; test: Antifungal activity against Aspergillus flavus at 100 ppm after 72 to 96 hr by disk diffusion method; format: functional; conditions: read-out: IZ
[33] = system: Pseudomonas; test: Antibacterial activity against Pseudomonas at 200 ppm after 24 hr by disk diffusion method; format: functional; conditions: read-out: IZ
[34] = system: Streptococcus; test: Antibacterial activity against beta-hemolytic Streptococcus at 200 ppm after 24 hr by disk diffusion method; format: functional; conditions: read-out: IZ
[35] = system: Aspergillus flavus; test: Antifungal activity against Aspergillus flavus at 500 ppm after 72 to 96 hr by disk diffusion method; format: functional; conditions: read-out: IZ
[36] = system: Aspergillus flavus; test: Antifungal activity against Aspergillus flavus at 200 ppm after 72 to 96 hr by disk diffusion method; format: functional; conditions: read-out: IZ
[37] = system: Pseudomonas; test: Antibacterial activity against Pseudomonas at 5 ug/disk after 24 hr by disk diffusion method; format: functional; conditions: read-out: IZ
[38] = system: Shigella flexneri; test: Antibacterial activity against Shigella flexneri at 5 ug/disc after 24 hr by disk diffusion method; format: functional; conditions: read-out: IZ
[39] = system: Staphylococcus aureus; test: Antibacterial activity against Staphylococcus aureus at 5 ug/disc after 24 hr by disk diffusion method; conditions: read-out: IZ
[40] = system: Klebsiella pneumoniae; test: Antibacterial activity against Klebsiella pneumoniae at 5 ug/disk after 24 hr by disk diffusion method; conditions: read-out: IZ
[41] = system: Vibrio cholerae; test: Antibacterial activity against Vibrio cholerae at 5 ug/disc after 24 hr by disk diffusion method; format: functional; conditions: read-out: IZ
[42] = system: Salmonella typhi; test: Antibacterial activity against Salmonella enterica subsp. enterica serovar Typhi at 5 ug/disk after 24 hr by disk diffusion method; format: functional; conditions: read-out: IZ
[43] = system: Streptococcus; test: Antibacterial activity against beta-hemolytic Streptococcus at 5 ug/disk after 24 hr by disk diffusion method; format: functional; conditions: read-out: IZ

Row | Structure (SMILES) | inhibition zone (IZ) [1] | zone of inhibition at 500 ppm [2] [mm] | zone of inhibition at 200 ppm [3] [mm] | zone of inhibition at 100 ppm [4] [mm] | inhibition zone (IZ) [5] | zone of inhibition at 200 ppm [6] [mm] | zone of inhibition at 200 ppm [7] [mm] | zone of inhibition at 500 ppm [8] [mm] | zone of inhibition at 200 ppm [9] [mm] | zone of inhibition at 200 ppm [10] [mm] | zone of inhibition at 500 ppm [11] [mm] | zone of inhibition at 500 ppm [12] [mm] | zone of inhibition at 500 ppm [13] [mm] | zone of inhibition at 100 ppm [14] [mm] | zone of inhibition at 100 ppm [15] [mm] | zone of inhibition at 500 ppm [16] [mm] | zone of inhibition at 500 ppm [17] [mm] | zone of inhibition at 200 ppm [18] [mm] | zone of inhibition at 500 ppm [19] [mm] | inhibition zone (IZ) [20] | also measured
1 | CC1(C)c2nnsc2C(c2ccc(F)cc2)NC1c1ccc(F)cc1 (centres undefined) | inactive | 30 | 22 | 17 | inactive | 17 | 17 | 17 | 17 | 22 | 22 | 22 | 22 | 12 | 12 | 30 | 17 | 22 | 12 | inactive | zone of inhibition at 500 ppm [21]: 17 mm; zone of inhibition at 200 ppm [22]: 17 mm; inhibition zone (IZ) [23]: inactive; zone of inhibition at 500 ppm [24]: 17 mm; zone of inhibition at 100 ppm [25]: 12 mm; zone of inhibition at 200 ppm [26]: 17 mm; inhibition zone (IZ) [27]: inactive; zone of inhibition at 200 ppm [28]: 12 mm; zone of inhibition at 100 ppm [29]: 12 mm; zone of inhibition at 100 ppm [30]: 17 mm; zone of inhibition at 500 ppm [31]: 17 mm; zone of inhibition at 100 ppm [32]: 12 mm; zone of inhibition at 200 ppm [33]: 17 mm; zone of inhibition at 200 ppm [34]: 17 mm; zone of inhibition at 500 ppm [35]: 17 mm; zone of inhibition at 200 ppm [36]: 17 mm
2 | O=C(O)c1cn(C2CC2)c2cc(N3CCNCC3)c(F)cc2c1=O [CIPROFLOXACIN] |  |  |  |  |  |  |  |  |  |  |  |  |  |  |  |  |  |  |  |  | zone of inhibition at 5 µg/disc [37]: 23 mm; zone of inhibition at 5 µg/disc [38]: 23 mm; zone of inhibition at 5 µg/disc [39]: 25 mm; zone of inhibition at 5 µg/disc [40]: 26 mm; zone of inhibition at 5 µg/disc [41]: 23 mm; zone of inhibition at 5 µg/disc [42]: 22 mm; zone of inhibition at 5 µg/disc [43]: 28 mm
3 | Cc1ccc(C2NC(c3ccc(C)cc3)C(C)(C)c3nnsc32)cc1 (centres undefined) | inactive | 30 | 22 | 17 | inactive | 12 | 17 | 17 | 17 | 22 | 30 | 22 | 22 | 12 | 12 | 30 | 17 | 17 | 12 | inactive | zone of inhibition at 500 ppm [21]: 17 mm; zone of inhibition at 200 ppm [22]: 17 mm; inhibition zone (IZ) [23]: inactive; zone of inhibition at 500 ppm [24]: 12 mm; zone of inhibition at 100 ppm [25]: 12 mm; zone of inhibition at 200 ppm [26]: 17 mm; inhibition zone (IZ) [27]: inactive; zone of inhibition at 200 ppm [28]: 12 mm; zone of inhibition at 100 ppm [29]: 12 mm; zone of inhibition at 100 ppm [30]: 17 mm; zone of inhibition at 500 ppm [31]: 17 mm; zone of inhibition at 100 ppm [32]: 12 mm; zone of inhibition at 200 ppm [33]: 12 mm; zone of inhibition at 200 ppm [34]: 17 mm; zone of inhibition at 500 ppm [35]: 12 mm; zone of inhibition at 200 ppm [36]: 12 mm
